In brackets after ≈: the same amount, converted by molar mass.
Legend:
[1] = Mouse microsomal stability; assay type: in vitro ADME; settings: mouse, microsomes; for Mouse microsome (% metabolized in 30 min): 0.5 h, 2 μM
Procedure: 4. Method for microsomal stability:
To determine microsomal turnover, test compounds were incubated (2 μM) with liver microsomes in the presence of NADPH, and loss of parent molecule was measured by LC-MS after 30 min.

[2] = Mouse pharmacokinetic studies (intravenous and oral); assay type: in vivo; settings: for AUC0–24: 24 h
Procedure: 5. Method for PK studies:
In Vivo Pharmacokinetic Studies. Compounds 1, 2 and 3 were administered intravenously at 1 mg/kg (1 ml/kg) in Dimethyl acetamide 25%v/v, ethanol 15%v/v, propylene glycol 10%v/v, 2 pyrrolidone 25%v/v, PW 25%v/v in fed animal, or orally at 10 mg/kg (10 ml/kg) in Hydroxyethylcellulose 1% w/v/polysorbate 80 0.25% v/v/Antifoam 1510-US 0.05% v/v/PW (probe sonicate), in fasted animals, respectively. Additional study was conducted for compound 2 wherein the animals were dosed 1-aminobenzotriazole (100 mpk) intraperitoneally one hour prior to dosing compound 2 either intravenously (fed animals) at 1 mg/kg or orally (fasted animals) at 10 mg/kg. Three animals were dosed per study arm.
Serial blood samples were collected at 0.08, 0.25, 0.75, 2, 4, 8, 24 for intravenous and 0.25, 0.5, 1, 2, 4, 8, 24 for oral administration. The blood was collected via a tail snip directly into a 20-μL EDTA-coated capillary and immediately spotted onto a Whatman DMPK-C dried blood sample (DBS) card and analysed using LC-MS/MS, as described previously.^7 Noncompartmental pharmacokinetic parameters were calculated using Watson version 7.4 (Thermo Scientific, Waltham, MA).

in vitro = in vitro ADME; settings: mouse, plasma
Description: Fraction unbound in mouse plasma:^8

Row | SMILES | CLint scaled at 2 μM [1] | Mouse microsome (% metabolized in 30 min) [1] | AUC,u0–24 ([2]; in vivo, iv, 1 mg/kg) | CL,u ([2]; in vivo, iv, 1 mg/kg) | Cl ([2]; in vivo, iv, 1 mg/kg) | Vdss ([2]; in vivo, iv, 1 mg/kg) | Cmax ([2]; in vivo, po, 10 mg/kg) | Cmax,u ([2]; in vivo, po, 10 mg/kg) | Tmax ([2]; in vivo, po, 10 mg/kg) | AUC(0-t) at 24 h ([2]; in vivo, po, 10 mg/kg, AUC0–24) | t1/2 ([2]; intravenous 1 mg/kg) | fraction unbound at 4.5 h, 1 µM (in vitro) | solubility (physchem; pH 7.4) | further results
1 | c1csc(-c2nnc(Cc3cccc4ccccc34)o2)c1 [Compound 1] | 3310 mL/min/kg | 99% | 32 ng·h/mL | 1727 mL/min/kg | 19 mL/min/kg | 0.9 L/kg | 19 ng/mL | 0.2 ng/mL | 2.75 h | 31 ng·h/mL | 1.2 h | 0.011 | < 1 µg/mL | AUC(0-t) ([2]; in vivo, iv, 1 mg/kg, AUC0–24): 2900 ng·h/mL
2 | CN(Cc1nnc(-c2ccco2)o1)Cc1c(F)cccc1Cl.O=C(O)/C=C\C(=O)O [Compound 2 maleate salt] | – | – | – | – | – | – | – | – | – | – | – | – | – | Aqueous solubility at pH 6 (pH 6): 0.687 mg/mL; Aqueous solubility at pH 7.4 (pH 7.4): 0.717 mg/mL
3 | CN(Cc1nnc(-c2ccco2)o1)Cc1c(F)cccc1Cl [Compound 2] | 1350 mL/min/kg | 99% | 37 ng·h/mL | 455 mL/min/kg | 56 mL/min/kg | 1.1 L/kg | 31 ng/mL | 3.8 ng/mL | 0.25 h | – | 0.3 h | 0.123 | 77 µg/mL (≈ 239 µM) | AUC0–24 ([2]; in vivo, iv, 1 mg/kg): 300 ng·h/mL; Increase of oral exposure when co-administered with ABT ([2]; in vivo, po, 10 mg/kg): > 10 fold; AUC0–24 ([2]; in vivo, po, 10 mg/kg): 48 ng·h/mL; half-life ([2]; whole blood, intravenous 1 mg/kg, co-administered with ABT (100 mg/kg, 1 h pre-dose)): 1.7 h; solubility (physchem; pH 6): 49 µg/mL (≈ 152 µM)
4 | CC1CCc2ccccc2N1Cc1nc(-c2ccsc2)no1 (centres unmarked) [Compound 3] | 1910 mL/min/kg | 65% | 6 ng·h/mL | 2733 mL/min/kg | 41 mL/min/kg | 6.3 L/kg | 9 ng/mL | 0.1 ng/mL | 0.25 h | 10 ng·h/mL | 2.9 h | – | 5 µg/mL (≈ 16.1 µM) | AUC(0-t) at 24 h ([2]; in vivo, iv, 1 mg/kg, AUC0–24): 430 ng·h/mL; fraction unbound (in vitro): < 0.015

Source: article PMC5946847, “Synthesis and biological evaluation of aryl-oxadiazoles as inhibitors of Mycobacterium tuberculosis” (Bioorganic & Medicinal Chemistry Letters, 2018)
